Data set [1] deals with His-EGF(A)-Fc. Put plainly: His-EGF(A)-Fc TR-FRET counterscreen. To be noted: counterscreen, Example 7.
Data set [2] has as its target T1, PCSK9Δhelix (Homo sapiens, UniProt Q8NBP7).
T1 construct: Human PCSK9 construct M1-Q692 with an engineered TEV site (residue deletion Y166, R167); made in house; host or cells: CHO
Put plainly: PCSK9Δhelix/Ab20 TR-FRET binding assay.

In data set [3] the target is T2, PCSK9-R167A:R215A:R218A (PCSK9-AAA) (Homo sapiens, UniProt Q8NBP7, R167A/R215A/R218A).
T2 construct: made in house; host or cells: CHO (transient)
Briefly: FXIa cleavage assay of the P′ helix of PCSK9-AAA. As to conditions: immunoblot with anti-N-terminal peptide antibody. The data set is classed as biochemical. On the procedure: The PCSK9-AAA mutant (2.6 μM) was incubated with 50 nM FXIa (Haematologic Technologies) in Tris buffer (50 mM Tris, 150 mM NaCl, 4 mM CaCl2, pH 8.0) at room temperature for the indicated time periods. […] After SDS-PAGE of the samples, proteins were transferred to a nitrocellulose membrane using iBlot (Invitrogen). Proteins were then probed with a polyclonal rabbit antibody (1:3000) raised against the PCSK9 N-terminal peptide (^153[…]^168 (SEQ ID NO: 5)), followed with HRP-conjugated donkey anti-rabbit antibody (1:5000, GE Healthcare) using iBind (Invitrogen). PCSK9 signals were detected by ECL (GE Healthcare) and visualized by autoradiography.
Proteins were then probed with a polyclonal rabbit antibody (1:3000) raised against the PCSK9 N-terminal peptide (^153[…]^168 (SEQ ID NO: 5)), followed with HRP-conjugated donkey anti-rabbit antibody (1:5000, GE Healthcare) using iBind (Invitrogen). PCSK9 signals were detected by ECL (GE Healthcare) and visualized by autoradiography.

For data set [4], the target named is T3, PCSK9 (Homo sapiens, UniProt Q8NBP7). Put plainly: PCSK9/EGF(A) TR-FRET binding assay. To be noted: TR-FRET, Example 7; read-out: PCSK9/EGF(A) IC50.
Data set [5] has as its target T4, FXIa (Homo sapiens, UniProt P03951).
T4 construct: purchased Haematologic Technologies
Put plainly: LC-MS determination of FXIa-mediated cleavage of groove-binding peptides. The data set is classed as in vitro ADME. As for the experimental part:
Peptide cleavage was determined by using the calculated molecular weights and by measuring the area under the curves.

In data set [6] the target is T3, PCSK9. Put plainly: PCSK9 | IC50(uM). The source says:
Where the first naming reader finds the target: head: PCSK9 | IC50(uM)

For data set [7], the target named is T3, PCSK9. Briefly: Phage competition ELISA. The data set is classed as binding. On the procedure:
The sequences of selected clones were fused to the N-terminus of M13 major coat protein (p8) using Kunkel mutagenesis method (Kunkel et al., Methods Enzymol 154, 367-82). The resulting construct was transformed to E. Coli. XL1 blue, single colony was grown in 1 mL 2YT supplemented with 50 μg/mL carbenicillin, 10 μg/mL Tetracycline and M13 KO7 helper phage at 37° C. for 2 h, Kanamycin was added to final concentration of 25 μg/mL, growth was continued at 37° C. for 6 h. The culture was transferred to 30 mL 2YT supplemented with 50 μg/mL carbenicillin and 25 μg/mL kanamycin and grown at 37° C. overnight. The next day, the phage was harvested and purified using the standard protocol (Tonikian et al. Nat Protoc. 2007; 2(6):1368-86). The serially diluted phage solution was applied to the biotinylated PCSK9 and biotinylated PCSK9Δhelix that had been immobilized for 15 min on a 384-well MaxiSorp ImmunoPlate previously coated with 5 μg/mL NeutrAvidin and blocked with Block buffer. The plate was incubated at 4° C. for 1 h, washed 10 times with PT buffer (PBS, 0.05% Tween® 20). The bound phage was detected with anti-M13-HRP and the ELISA signal was read at OD450 nm. The background was ELISA signal that the phage directly bound to NeutrAvidin-coated plate. The data was plotted and the curve fitted with KaleidaGraph. Sub-saturating phage concentration that gave 80% of maximum binding signal was determined by the binding curve.
IC50 measurements were performed by mixing a fixed sub-saturating concentration of peptide-displaying phage with a serial dilution of synthetic peptides in PBT buffer. The mixture was added to plates coated with PCSK9 and PCSK9Δhelix and incubated for 1 h at room temperature. The plates were then washed 10 times with PBT buffer and the bound phage was detected by anti-M13-HRP. The data was plotted, curve fitted and IC50 derived by use of KaleidaGraph. All measurements were repeated 3 times independently.

Data set [8] has as its target T1, PCSK9Δhelix. Put plainly: PCSK9Δhelix | IC50(uM). An excerpt: Where the first naming reader finds the target: head: PCSK9Δhelix | IC50(uM)
In data set [9] the test system is contaminating protease. Briefly: PCSK9 cleavage under crystallization conditions and inhibition by serine protease inhibitors. The data set is classed as biochemical. As to conditions: serpins 150 μM, Aprotinin 1.5 mM, 9 days, room temperature. On the procedure:
After SDS-PAGE of the samples, the 60 kDa band comprising the PCSK9 catalytic domain and Cys-rich domain (CRD) was analyzed by N-terminal sequencing and the results reported in Table 2.
Samples were analyzed by SDS-PAGE and transferred to a nitrocellulose membrane using iBlot (Invitrogen). Proteins were then probed with a polyclonal rabbit antibody (1:3000) raised against the PCSK9 N-terminal peptide (^153[…]^168 (SEQ ID NO: 5)), followed with HRP-conjugated donkey anti-rabbit antibody (1:5000, GE Healthcare) using iBind (Invitrogen). PCSK9 signals were detected by ECL (GE Healthcare) and visualized by autoradiography. The polyclonal rabbit antibody against the PCSK9 N-terminal peptide ^153[…]^168 (SEQ ID NO: 5) was generated by immunizing rabbits with the synthesized peptide […] (SEQ ID NO: 285), which contained an extra Cys residue at the N-terminus for conjugation to KLH. The polyclonal antibody IgG was purified from rabbit serum using affinity chromatography with resin-immobilized peptide […] (SEQ ID NO: 285) (YenZym Antibodies, LLC, San Francisco, Calif.).

Data set [10] has as its target T5, LDLR ectodomain (Homo sapiens, UniProt P01130).
T5 construct: purchased R & D Systems
Briefly: Biolayer interferometry binding of PCSK9 mutants to LDLR ectodomain. The source says: In further experiments the previously described PCSK9 mutant PCSK9-R215A:R218A (=PCSK9-AA) (Lipari et al. J Biol Chem. 2012 Dec. 21; 287(52):43482-91), in which the “furin cleavage loop” residues had been changed to Alanine, was used in order to prevent protease cleavage at the susceptible residues R215 and R218. […] Therefore, to direct the FXIa cleavage specifically to the P′ alpha helix residue R160 the triple mutant PCSK9-R167A:R215A:R218A (=PCSK9-AAA) was produced. The binding affinities of PCSK9-AAA and PCSK9-AA to the LDLR ectodomain (R & D Systems) were determined by biolayer interferometry as described (Lipari et al. J Biol Chem. 2012 Dec. 21; 287(52):43482-91).

The target in data set [11] is T3, PCSK9. Put plainly: Surface plasmon resonance biosensor-based affinity analysis (Example 4). The format is binding. As to conditions: Table 7, Target PCSK9, SPR at 20° C.
The target of data set [12] is T1, PCSK9Δhelix. Described as above. The data set is classed as binding. To be noted: Table 7, Target PCSK9Δhelix, SPR at 20° C.; read-out: Kd.
The target in data set [13] is T1, PCSK9Δhelix. Put plainly: SPR affinity measurements of peptide binding (Example 8). To be noted: Table 10, binding to PCSK9Δhelix. As for the experimental part:
A Biacore™ T100 or Biacore™ 8K was adjusted to 20° C. The system was primed into assay buffer which consisted of 25 mM HEPES, pH 7.5, 0.15 M NaCl, 0.005% (v/v) Tween® 20, 0.2 mM tris(2-carboxyethyl)phosphine and optionally contained 0.1% (w/v) carboxymethylated dextran (average MW 10 kDa) and 0.2% (w/v) PEG (average MW 3450 Da) in order to reduce potential non-specific binding. Peptides were assayed by capturing fresh PCSK9 or PCSK9Δhelix after each binding regeneration cycle by exploiting a histidine tag and an NTA-sensor chip. The surface was charged with (His)8-tagged PCSK9 (approximately 800 RU captured). […] Compound 19 and Compound 20 were assayed in six serial two-fold dilutions from 100 nM to 3.1 nM. All peptides were analyzed in duplicate by serial injection (50 μL/min for 1 min) of peptide dilution from low to high concentration. The surface was then stripped of target by injecting 0.5 M EDTA, pH 8.0. This sequence was repeated for each peptide binding cycle and blank control cycles.
All SPR data was recorded in duplicate for five, or more serial dilutions, except for the two fusion peptides, which produced extremely low fitting error. Multicycle data (i.e. separate curves for each concentration) and single cycle data (i.e. single curve with serial injection of each concentration) were double referenced and fitted to an interaction model using BIAevaluation software. Peptide binding to PCSK9 produced deviations from a simple 1:1 binding interaction model that required application of a two-state model for determination of Kd while interactions with PCSK9Δhelix conformed well to simple 1:1 binding. Kinetic curvature was poorly defined for rapidly dissociating peptides and in these cases Kd was estimated from a steady-state dose response plot. Kd values were reported with associated standard error, a measure of confidence in that parameter value.

The mark [14] stands for this setting: TR-FRET, Example 7, read-out: PCSK9Δhelix/Ab20 IC50.

Entries after “also recorded” stand apart in the source; their conditions may differ. Square brackets hold non-standard residues; d marks the D form. Ends that are not written are not given here. Peptide text beside a SMILES is read from it. * marks the point of attachment. hArg = N=C(N)NCCCC[C@H](N)C(=O)O; Pentanoyl = CCCCC(=O)*

We go through eight compounds from patent US11034725B2, “Compositions and methods for treating cardiovascular disease” (Genentech, Inc., priority 2016, dated 2021).

As to `CCCCC(=O)N[C@@H](Cc1c[nH]c2ccccc12)C(=O)N[C@@H](CC(N)=O)C(=O)N[C@@H](CC(C)C)C(=O)N[C@H](C(=O)N[C@@H](CCCNC(=N)N)C(=O)N[C@H](C(=O)NCC(=O)N[C@@H](CC(C)C)C(=O)N[C@H](C(=O)N[C@@H](CCCNC(=N)N)C(N)=O)[C@@H](C)O)[C@@H](C)CC)C(C)C` [Compound 112] (Pentanoyl-WNLVRIGLTR-NH2), the IC50 in data set [1] is over 50 µM; in data set [2] (setting [14]), 7.5 µM; in [4], over 50 µM. The “effect on FXIa-mediated cleavage of the P′ helix of PCSK9-AAA” value in data set [3] is on record as “able to increase the FXIa-mediated cleavage”. For the same compound, the “peptide cleaved by FXIa” value in data set [5] (1 h, with K9-AAA and 50 nM FXIa) was 34%; in data set [5] (6 h, with K9-AAA and 50 nM FXIa), 76%. In addition, the metabolised at 1 h in data set [5] (isolated protease FXIa (50 nM) with K9-AAA, 1 h, with K9-AAA and 50 nM FXIa, read-out: peptide cleaved by FXIa) amounted to 34%. The metabolised at 6 h in data set [5] (isolated protease FXIa (50 nM) with K9-AAA, 6 h, with K9-AAA and 50 nM FXIa, read-out: peptide cleaved by FXIa) amounted to 76%.
With “SGDLMPWNLVRIGLLR-NH2 [Compound K9gvpep7]”, the IC50 in data set [6] was 0.635 ± 0.107 µM; in [8], 0.914 ± 0.0283 µM. In addition, the “competition with binding of phage-displayed Pep2-8 to PCSK9” value in data set [7] is on record as “did not compete”.
Take “alpha1-antitrypsin: more elastase-specific serpin”: the “inhibition of P′ helix cleavage of the Fab33:PCSK9 complex by contaminating protease” value in [9] is given as “did not inhibit cleavage”.
Consider “SGGSMPWNLERIFALH-NH2 [Compound K9gvpep8]”, for which the IC50 was 1.7 ± 0.166 µM in data set [6] and 2.15 ± 0.215 µM in data set [8]. Further, the “competition with binding of phage-displayed Pep2-8 to PCSK9” value in [7] is “did not compete”.
For `CCCCC(=O)N[C@@H](Cc1c[nH]c2ccccc12)C(=O)N[C@@H](CC(N)=O)C(=O)N[C@@H](CC(C)C)C(=O)N[C@H](C(=O)N[C@@H](CCCCNC(=N)N)C(=O)N[C@H](C(=O)NCC(=O)N[C@@H](CC(C)C)C(=O)N[C@H](C(=O)N[C@@H](CCCNC(=N)N)C(N)=O)[C@@H](C)O)[C@@H](C)CC)C(C)C` [Compound 118, n-BuC(O)-WNLV(homoR)IGLTR-NH2] (Pentanoyl-WNLV[hArg]IGLTR-NH2), the IC50 in data set [1] and in data set [4] was over 50 µM throughout. Further, the “increase of inhibition in PCSK9Δhelix/Ab20 assay by homo-arginine replacement” value in data set [2] (versus Compound 112) is given as 5 fold. Moreover, the “effect on FXIa-mediated cleavage of the P′ helix of PCSK9-AAA” value in data set [3] is recorded as “higher degree; also recorded: able to increase the FXIa-mediated cleavage; also recorded: stronger effect”. The “peptide cleavage by FXIa” value in data set [5] (up to 6 h) is reported as “remained intact; also recorded: No cleavage”.
Take “PCSK9-AA: PCSK9 mutant in which the furin cleavage loop residues R215 and R218 had been changed to Alanine”: the Kd in data set [10] was 0.26 µM.
Take Ac-PWNLVRIGLLR-NH2 [Compound 52]: the IC50 in [1] is over 50 µM; in data set [2] (setting [14]), 10.2 µM; in data set [2] (Table 10, average ±S.D. of three experiments, read-out: Ab20 IC50) it was 15.9 ± 1.1 µM; in data set [4], over 50 µM. For the same compound, the figures for the Kd in [11], in data set [12] and in [13] were 17.9 µM, 2.6 µM and 2.1 µM, respectively.
With antithrombin III, the “inhibition of P′ helix cleavage of the Fab33:PCSK9 complex by contaminating protease” value in [9] is reported as “cleavage was prevented; also recorded: able to prevent proteolytic cleavage”.
